Values joined by “and” are separate entries in the source; they are usually repeats but may differ in a detail not shown here. Equal entries are not always repeated.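 Five concentrations, 48 hours, 96-well plates. At the GI50, growth is halved. The concentration for full growth arrest is given as TGI.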
What was measured:
Experiment in all cases: NCI tumour cell line growth inhibition, 48 h
RXF 393 renal = test system: RXF 393 renal
MOLT-4 leukemia = test system: MOLT-4 leukemia
OVCAR-5 ovarian = test system: OVCAR-5 ovarian
HOP-92 NSCLC = test system: HOP-92 NSCLC
HL-60(TB) leukemia = test system: HL-60(TB) leukemia
SK-MEL-5 melanoma = test system: SK-MEL-5 melanoma
HCC-2998 colon = test system: HCC-2998 colon
RPMI-8226 leukemia = test system: RPMI-8226 leukemia
NCI-H23 lung = test system: NCI-H23 lung
KM20L2 colon = test system: KM20L2 colon
M14 melanoma = test system: M14 melanoma
SF-268 CNS = test system: SF-268 CNS
HOP-62 NSCLC = test system: HOP-62 NSCLC
SNB-19 CNS = test system: SNB-19 CNS
MCF7 breast = test system: MCF7 breast
KM12 colon = test system: KM12 colon
OVCAR-3 ovarian = test system: OVCAR-3 ovarian
HT29 colon = test system: HT29 colon
XF 498 CNS = test system: XF 498 CNS
SN12C renal = test system: SN12C renal
HCT-116 colon = test system: HCT-116 colon
M19-MEL melanoma = test system: M19-MEL melanoma
LOX IMVI melanoma = test system: LOX IMVI melanoma
SNB-75 CNS = test system: SNB-75 CNS
SNB-78 CNS = test system: SNB-78 CNS
EKVX NSCLC = test system: EKVX NSCLC
DMS 273 small cell lung = test system: DMS 273 small cell lung
K-562 leukemia = test system: K-562 leukemia
MDA-N = test system: MDA-N
P388/ADR leukemia = test system: P388/ADR leukemia
UO-31 renal = test system: UO-31 renal

C[C@H]1C/C=C/[C@H]2[C@@H]3O[C@]3(C)[C@@H](C)[C@H]3[C@H](Cc4ccccc4)NC(=O)[C@]32OC(=O)O/C=C/[C@@](C)(O)C1=O
GI50 (RXF 393 renal): 0.0125 µM | GI50 (MOLT-4 leukemia): 0.289 µM and 0.052 µM | TGI (OVCAR-5 ovarian): > 95.4 µM | TGI (HOP-92 NSCLC): 0.0591 µM and 0.0877 µM | GI50 (HL-60(TB) leukemia): 0.153 µM and 0.0973 µM | TGI (HL-60(TB) leukemia): 11.3 µM and 2.95 µM and 4.97 µM | GI50 (SK-MEL-5 melanoma): 0.0539 µM and 0.0351 µM | GI50 (HCC-2998 colon): 0.155 µM and 0.342 µM | GI50 (RPMI-8226 leukemia): 0.235 µM and 0.0493 µM | TGI (RPMI-8226 leukemia): 76.2 µM and 44.9 µM and 32.2 µM | GI50 (NCI-H23 lung): 0.17 µM and 0.13 µM | GI50 (KM20L2 colon): 0.0125 µM | TGI (KM20L2 colon): > 92.3 µM and 125 µM and > 250 µM | TGI (M14 melanoma): 25.4 µM | GI50 (SF-268 CNS): 0.0125 µM and 0.025 µM | GI50 (HOP-62 NSCLC): 0.0125 µM and 0.025 µM | TGI (HOP-62 NSCLC): 0.185 µM and 0.164 µM and 0.067 µM | GI50 (SNB-19 CNS): 0.0174 µM | GI50 (MCF7 breast): 0.0125 µM and 0.025 µM | TGI (MCF7 breast): 64.4 µM and 125 µM and 67.2 µM | GI50 (KM12 colon): 11.7 µM and 29.1 µM | TGI (KM12 colon): 125 µM and > 250 µM | GI50 (OVCAR-3 ovarian): 0.025 µM | GI50 (HT29 colon): 0.0465 µM and 0.025 µM | TGI (HT29 colon): 99.2 µM and 125 µM and > 250 µM | GI50 (XF 498 CNS): < 0.025 µM | GI50 (SN12C renal): < 0.025 µM | GI50 (HCT-116 colon): 0.0578 µM and 0.0207 µM and 0.0301 µM | TGI (HCT-116 colon): 6.75 µM and 16.3 µM and 33.6 µM | GI50 (M19-MEL melanoma): 0.0356 µM and 0.025 µM | TGI (M19-MEL melanoma): 24.2 µM and 38.9 µM and 56.8 µM | GI50 (LOX IMVI melanoma): < 0.01 µM and 0.025 µM | GI50 (SNB-75 CNS): 0.025 µM | GI50 (SNB-78 CNS): 0.024 µM and 0.025 µM | GI50 (EKVX NSCLC): 0.065 µM and 0.121 µM | GI50 (DMS 273 small cell lung): 0.0125 µM | TGI (DMS 273 small cell lung): > 96.8 µM and 64.2 µM | GI50 (K-562 leukemia): 0.0125 µM and 0.025 µM | TGI (K-562 leukemia): 91.2 µM and 125 µM and > 250 µM | TGI (MDA-N): 54 µM | GI50 (P388/ADR leukemia): 0.434 µM and 0.194 µM and 0.69 µM | TGI (P388/ADR leukemia): 10.5 µM and 14 µM and 40.9 µM | TGI (UO-31 renal): 0.0499 µM

Source: PubChem BioAssay (NCI)
